Assay results taken from patent publication US11312727B1, “Macrocyclic flu endonuclease inhibitors” (Janssen BioPharma, Inc., priority 2018, dated 2022).

Legend:
[1] = in vitro; details: human, CC50, uninfected A549 cells, CellTiter-Glo
[2] = system: Influenza strain A549 A/WSN/33 (H1N1); assay: microbe, parasite or virus in culture; assay type: cell-based; details: Influenza A virus, A549, 20 h, A549 cells, influenza A/WSN/33 (H1N1), 20 hours incubation; read-out: A549_A(H1N1) EC50

For `O=C1c2c(O)c(=O)ccn2N2CN1C/C=C\CCc1ccccc1[C@@H]2c1ccccc1` (single isomer, unassigned) [Compound 21B, (17*S,*Z)-4-hydroxy-16-phenyl-7,10,11,16-tetrahydro-6,17-methanobenzo[k]pyrido[1,2-b][1,2,5]triazacyclotridecine-3,5-dione], the CC50 [1] was greater than 1000 nM and the EC50 [2] was 815 nM.

Work on `O=C1c2c(O)c(=O)ccn2N2CN1C/C=C\COc1ccc(F)cc1[C@H]2c1ccccc1` (single isomer, unassigned) [Compound 22A, (18*R,Z)-2-fluoro-12-hydroxy-18-phenyl-6,9-dihydro-18H-10,17-methanobenzo[b]pyrido[1,2-f][1]oxa[5,6,9]triazacyclotridecine-11,13-dione] yielded a CC50 [1] greater than 1000 nM and an EC50 [2] of 9540 nM.

`O=C1c2c(O)c(=O)ccn2N2CN1C/C=C\COc1ccc(F)cc1[C@@H]2c1ccccc1` (single isomer, unassigned) [Compound 22B, (18*S,Z)-2-fluoro-12-hydroxy-18-phenyl-6,9-dihydro-18H-10,17-methanobenzo[b]pyrido[1,2-f][1]oxa[5,6,9]triazacyclotridecine-11,13-dione] showed a CC50 [1] greater than 1000 nM and an EC50 [2] of 12 nM.

Compound `O=C1c2c(O)c(=O)ccn2N2CN1CCCCCc1ncccc1[C@H]2c1ccccc1` (single isomer, unassigned) [Compound 23A, (18*R)-12-hydroxy-18-phenyl-5,6,7,8,9,18-hexahydro-10,17-methanodipyrido[1,2-b:2′,3′-k][1,2,5]triazacyclotridecine-11,13-dione] has a CC50 [1] greater than 10000 nM and an EC50 [2] of 55000 nM.

`O=C1c2c(O)c(=O)ccn2N2CN1CCCCCc1ncccc1[C@@H]2c1ccccc1` (single isomer, unassigned) [Compound 23B, (18*S)-12-hydroxy-18-phenyl-5,6,7,8,9,18-hexahydro-10,17-methanodipyrido[1,2-b:2′,3′-k][1,2,5]triazacyclotridecine-11,13-dione] gave a CC50 [1] greater than 1000 nM and an EC50 [2] of 12200 nM.

Compound `O=C1c2c(O)c(=O)ccn2N2CN1C/C=C\CCc1ncccc1[C@H]2c1ccccc1` (single isomer, unassigned) [Compound 24A, (18*R,*Z)-12-hydroxy-18-phenyl-5,6,9,18-tetrahydro-10,17-methanodipyrido[1,2-b:2′,3′-k][1,2,5]triazacyclotridecine-11,13-dione] has a CC50 [1] greater than 10000 nM and an EC50 [2] of 39600 nM.

Compound `O=C1c2c(O)c(=O)ccn2N2CN1C/C=C\CCc1ncccc1[C@@H]2c1ccccc1` (single isomer, unassigned) [Compound 24B, (18*S,*Z)-12-hydroxy-18-phenyl-5,6,9,18-tetrahydro-10,17-methanodipyrido[1,2-b:2′,3′-k][1,2,5]triazacyclotridecine-11,13-dione] has a CC50 [1] greater than 1000 nM and an EC50 [2] of 1530 nM.

For `O=C1c2c(O)c(=O)ccn2N2CN1C/C=C\COc1ccc(F)cc1[C@H]2c1cccc(F)c1` (single isomer, unassigned) [Compound 25A, (18*R,Z)-2-fluoro-18-(3-fluorophenyl)-12-hydroxy-6,9-dihydro-18H-10,17-methanobenzo[b]pyrido[1,2-f][1]oxa[5,6,9]triazacyclotridecine-11,13-dione], the CC50 [1] was greater than 2000 nM and the EC50 [2] was 9800 nM.

`O=C1c2c(O)c(=O)ccn2N2CN1C/C=C\COc1ccc(F)cc1[C@@H]2c1cccc(F)c1` (single isomer, unassigned) [Compound 25B, (18*S,Z)-2-fluoro-18-(3-fluorophenyl)-12-hydroxy-6,9-dihydro-18H-10,17-methanobenzo[b]pyrido[1,2-f][1]oxa[5,6,9]triazacyclotridecine-11,13-dione] showed a CC50 [1] greater than 2000 nM and an EC50 [2] of 11 nM.

Compound `O=C1c2c(O)c(=O)ccn2N2CN1C/C=C\COc1ccccc1[C@H]2c1cccnc1` (single isomer, unassigned) [Compound 26A, (18*R,*Z)-12-hydroxy-18-(pyridin-3-yl)-6,9-dihydro-18H-10,17-methanobenzo[b]pyrido[1,2-f][1]oxa[5,6,9]triazacyclotridecine-11,13-dione] has a CC50 [1] greater than 2000 nM and an EC50 [2] of 394 nM.

Compound `O=C1c2c(O)c(=O)ccn2N2CN1C/C=C\COc1ccccc1[C@@H]2c1cccnc1` (single isomer, unassigned) [Compound 26B, (18*S,*Z)-12-hydroxy-18-(pyridin-3-yl)-6,9-dihydro-18H-10,17-methanobenzo[b]pyrido[1,2-f][1]oxa[5,6,9]triazacyclotridecine-11,13-dione] has a CC50 [1] greater than 4000 nM and an EC50 [2] of 40100 nM.

`O=C1c2c(O)c(=O)ccn2N2CN1C/C=C\COc1cccnc1[C@H]2c1ccccc1` (single isomer, unassigned) [Compound 27A, (18*R,*Z)-12-hydroxy-18-phenyl-6,9-dihydro-18H-10,17-methanodipyrido[3,2-b:1′,2′-f][1]oxa[5,6,9]triazacyclotridecine-11,13-dione] showed a CC50 [1] greater than 2000 nM and an EC50 [2] of 94 nM.

For `O=C1c2c(O)c(=O)ccn2N2CN1C/C=C\COc1cccnc1[C@@H]2c1ccccc1` (single isomer, unassigned) [Compound 27B, (18*S,*Z)-12-hydroxy-18-phenyl-6,9-dihydro-18H-10,17-methanodipyrido[3,2-b:1′,2′-f][1]oxa[5,6,9]triazacyclotridecine-11,13-dione], the CC50 [1] was greater than 20000 nM and the EC50 [2] was 45700 nM.

Compound `O=C1c2c(O)c(=O)ccn2N2CN1CC/C=C\COc1cccc3c1[C@H]2c1ccccc1CC3` (single isomer, unassigned) [Compound 28A] has a CC50 [1] greater than 20000 nM and an EC50 [2] of 5950 nM.

`O=C1c2c(O)c(=O)ccn2N2CN1CC/C=C\COc1cccc3c1[C@@H]2c1ccccc1CC3` (single isomer, unassigned) [Compound 28B] gave a CC50 [1] greater than 400 nM and an EC50 [2] of 6 nM.

In the case of `C[C@@H]1/C=C/COc2ccccc2[C@@H](c2ccccc2)N2CN1C(=O)c1c(O)c(=O)ccn12` (single isomer, unassigned) [Compound 29AA, (9*R, 18*R, E)-12-hydroxy-9-methyl-18-phenyl-6,9-dihydro-18H-10,17-methanobenzo[b]pyrido[1,2-f][1]oxa[5,6,9]triazacyclotridecine-11,13-dione], the CC50 [1] is reported as greater than 2000 nM and the EC50 [2] is reported as greater than 3000 nM.

`C[C@H]1/C=C/COc2ccccc2[C@@H](c2ccccc2)N2CN1C(=O)c1c(O)c(=O)ccn12` (single isomer, unassigned) [Compound 29AB, (9*S, 18*R, E)-12-hydroxy-9-methyl-18-phenyl-6,9-dihydro-18H-10,17-methanobenzo[b]pyrido[1,2-f][1]oxa[5,6,9]triazacyclotridecine-11,13-dione] showed a CC50 [1] greater than 200 nM and an EC50 [2] of 5.7 nM.

Compound `C[C@@H]1/C=C/COc2ccccc2[C@H](c2ccccc2)N2CN1C(=O)c1c(O)c(=O)ccn12` (single isomer, unassigned) [Compound 29BA, (9*R, 18*S, E)-12-hydroxy-9-methyl-18-phenyl-6,9-dihydro-18H-10,17-methanobenzo[b]pyrido[1,2-f][1]oxa[5,6,9]triazacyclotridecine-11,13-dione] has a CC50 [1] of 83100 nM and an EC50 [2] of 1710 nM.

For `C[C@H]1/C=C/COc2ccccc2[C@H](c2ccccc2)N2CN1C(=O)c1c(O)c(=O)ccn12` (single isomer, unassigned) [Compound 29BB, (9*S, 18*S, E)-12-hydroxy-9-methyl-18-phenyl-6,9-dihydro-18H-10,17-methanobenzo[b]pyrido[1,2-f][1]oxa[5,6,9]triazacyclotridecine-11,13-dione], the CC50 [1] was greater than 2000 nM and the EC50 [2] was 8 nM.

Compound `O=C1c2c(O)c(=O)ccn2N2CN1CCCCOc1ccc(F)cc1[C@H]2c1ccccc1` (single isomer, unassigned) [Compound 30A, (18*R)-2-fluoro-12-hydroxy-18-phenyl-6,7,8,9-tetrahydro-18H-10,17-methanobenzo[b]pyrido[1,2-f][1]oxa[5,6,9]triazacyclotridecine-11,13-dione] has a CC50 [1] greater than 2000 nM and an EC50 [2] greater than 1000 nM.

`O=C1c2c(O)c(=O)ccn2N2CN1CCCCOc1ccc(F)cc1[C@@H]2c1ccccc1` (single isomer, unassigned) [Compound 30B, (18*S)-2-fluoro-12-hydroxy-18-phenyl-6,7,8,9-tetrahydro-18H-10,17-methanobenzo[b]pyrido[1,2-f][1]oxa[5,6,9]triazacyclotridecine-11,13-dione] showed a CC50 [1] greater than 2000 nM and an EC50 [2] of 15 nM.

Compound `O=C1c2c(O)c(=O)ccn2N2CN1CCCCOc1ccc(F)cc1[C@H]2c1cccc(F)c1` (single isomer, unassigned) [Compound 32A, (18*R)-2-fluoro-18-(3-fluorophenyl)-12-hydroxy-6,7,8,9-tetrahydro-18H-10,17-methanobenzo[b]pyrido[1,2-f][1]oxa[5,6,9]triazacyclotridecine-11,13-dione] has a CC50 [1] greater than 2000 nM and an EC50 [2] greater than 1000 nM.

With `O=C1c2c(O)c(=O)ccn2N2CN1CCCCOc1ccc(F)cc1[C@@H]2c1cccc(F)c1` (single isomer, unassigned) [Compound 32B, (18*S)-2-fluoro-18-(3-fluorophenyl)-12-hydroxy-6,7,8,9-tetrahydro-18H-10,17-methanobenzo[b]pyrido[1,2-f][1]oxa[5,6,9]triazacyclotridecine-11,13-dione] the CC50 [1] was greater than 2000 nM and the EC50 [2] was 25 nM.

`O=C1c2c(O)c(=O)ccn2N2CN1C/C=C\COc1cccc3c1[C@H]2c1ccccc1CC3` (single isomer, unassigned) [Compound 33A, (19b*R,Z)-4-hydroxy-7,10,15,19b-tetrahydro-14H-13,12-(epiprop[1]en[1]yl[3]ylidene)-6,20-methanobenzo[3,4]cyclohepta[1,2-c]pyrido[1,2-f][1]oxa[5,6,9]triazacyclotridecine-3,5-dione] gave a CC50 [1] greater than 2000 nM and an EC50 [2] greater than 1000 nM.

`O=C1c2c(O)c(=O)ccn2N2CN1C/C=C\COc1cccc3c1[C@@H]2c1ccccc1CC3` (single isomer, unassigned) [Compound 33B, (19b*S,Z)-4-hydroxy-7,10,15,19b-tetrahydro-14H-13,12-(epiprop[1]en[1]yl[3]ylidene)-6,20-methanobenzo[3,4]cyclohepta[1,2-c]pyrido[1,2-f][1]oxa[5,6,9]triazacyclotridecine-3,5-dione] gave a CC50 [1] greater than 2000 nM and an EC50 [2] of 15 nM.
